target: T1, ER (Homo sapiens, UniProt P03372); assay: ER degradation activity, in-cell western blot analysis in T47D cells; assay type: cell-based; details: 16 hours, Table A does not say which cell line (T47D or MCF7), read-out: Potency (DC50)
T1 construct: host or cells: T47D and MCF7 human breast cancer cells
T1 sequence (P03372 1-595): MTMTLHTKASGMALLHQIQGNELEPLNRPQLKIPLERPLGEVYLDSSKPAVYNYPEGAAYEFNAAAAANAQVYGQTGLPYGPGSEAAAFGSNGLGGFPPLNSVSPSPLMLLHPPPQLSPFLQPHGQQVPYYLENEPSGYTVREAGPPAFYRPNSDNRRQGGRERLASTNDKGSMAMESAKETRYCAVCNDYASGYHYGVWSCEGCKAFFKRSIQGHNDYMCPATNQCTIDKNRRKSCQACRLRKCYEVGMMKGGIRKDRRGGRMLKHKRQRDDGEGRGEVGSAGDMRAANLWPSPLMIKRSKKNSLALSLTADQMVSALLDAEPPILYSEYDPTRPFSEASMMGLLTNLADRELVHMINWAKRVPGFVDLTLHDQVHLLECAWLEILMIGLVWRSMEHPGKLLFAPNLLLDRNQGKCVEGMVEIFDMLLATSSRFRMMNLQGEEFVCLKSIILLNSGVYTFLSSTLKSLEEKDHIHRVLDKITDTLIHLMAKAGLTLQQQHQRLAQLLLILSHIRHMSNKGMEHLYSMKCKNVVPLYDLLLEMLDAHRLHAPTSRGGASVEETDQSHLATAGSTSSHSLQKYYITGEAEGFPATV
Outline: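 In-cell western, T47D; compounds 16 h, 0.5% DMSO final; anti-rabbit-680/anti-mouse-800 secondaries, 1 h RT, dark; read on CLX imager. ER % vs untreated/DMSO wells (100%).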

DC50	SMILES
0.01 to 0.1 µM	O=C1CCC(N2C(=O)c3cc4c(cc3C2=O)CN(CC(=O)N2CCC3(CC2)CCN(c2ccc([C@@H]5c6ccc(B(O)O)cc6CC[C@@H]5c5ccccc5)cc2)CC3)C4)C(=O)N1 (mixture of isomers) [E 180, Rac-((5R,6S)-5-(4-(9-(2-(6-(2,6-dioxopiperidin-3-yl)-5,7-dioxo-3,5,6,7-tetrahydropyrrolo[3,4-f]isoindol-2(1H)-yl)acetyl)-3,9-diazaspiro[5.5]undecan-3-yl)phenyl)-6-phenyl-5,6,7,8-tetrahydronaphthalen-2-yl)boronic acid]
> 0.1 µM	O=C1CCC(N2C(=O)c3cc4c(cc3C2=O)CN(CC2CN(CC3CCN(c5ccc([C@@H]6c7ccc(O)cc7CC[C@@H]6c6ccccc6)cc5)CC3)C2)C4)C(=O)N1 (stereo partly drawn) [E 218, 2-(2,6-dioxopiperidin-3-yl)-6-((1-((1-(4-((1R,2S)-6-hydroxy-2-phenyl-1,2,3,4-tetrahydronaphthalen-1-yl)phenyl)piperidin-4-yl)methyl)azetidin-3-yl)methyl)-6,7-dihydropyrrolo[3,4-f]isoindole-1,3(2H,5H)-dione]
< 0.01 µM	C[C@@H]1Cc2cc(O)ccc2[C@@H](c2c(F)cc(N3CCC4(CC3)CN(CC(=O)N3Cc5cc6c(cc5C3)C(=O)N(C3CCC(=O)NC3=O)C6)C4)cc2F)N1CC(F)F (some centres unmarked) [E 39]
0.01 to 0.1 µM	O=C1CCC(N2Cc3cc4c(cc3C2=O)CN(C(=O)CN2CC3(C2)CN(c2ccc(C5=C(c6ccc(F)cc6)CCCc6cc(O)ccc65)cc2)C3)C4)C(=O)N1 (centres unmarked) [E 48]
> 0.1 µM	O=C1CCC(N2C(=O)c3cc4c(cc3C2=O)CN(CC2CCN(CC3(F)CN(c5ccc([C@@H]6c7ccc(O)cc7CC[C@@H]6c6ccccc6)cc5)C3)CC2)C4)C(=O)N1 (stereo partly drawn) [E 286, 2-(2,6-dioxopiperidin-3-yl)-6-((1-((3-fluoro-1-(4-((1R,2S)-6-hydroxy-2-phenyl-1,2,3,4-tetrahydronaphthalen-1-yl)phenyl)azetidin-3-yl)methyl)piperidin-4-yl)methyl)-6,7-dihydropyrrolo[3,4-f]isoindole-1,3(2H,5H)-dione]
0.01 to 0.1 µM	C[C@@H]1Cc2c([nH]c3ccccc23)[C@@H](c2c(F)cc(N3CC(CC(=O)N4CC(N5Cc6cc7c(cc6C5)C(=O)N(C5CCC(=O)NC5=O)C7)C4)C3)cc2F)N1CC(F)F (stereo partly drawn) [E 134, 3-(6-(1-(2-(1-(4-((1R,3R)-2-(2,2-difluoroethyl)-3-methyl-2,3,4,9-tetrahydro-1H-pyrido[3,4-b]indol-1-yl)-3,5-difluorophenyl)azetidin-3-yl)acetyl)azetidin-3-yl)-1-oxo-3,5,6,7-tetrahydropyrrolo[3,4-f]isoindol-2(1H)-yl)piperidine-2,6-dione]

same assay, conditions: compounds 16 hours, Table A does not say whether T47D or MCF7, read-out: Potency (DC50)

DC50	SMILES
> 0.1 µM	O=C1CCC(N2C(=O)c3cc4c(cc3C2=O)CC2(C4)CN(CC(=O)N3CC(Oc4ccc([C@@H]5c6ccc(O)cc6CC[C@@H]5c5ccccc5)cc4)C3)C2)C(=O)N1 (stereo partly drawn) [E 503, 2′-(2,6-dioxopiperidin-3-yl)-1-(2-(3-(4-((1R,2S)-6-hydroxy-2-phenyl-1,2,3,4-tetrahydronaphthalen-1-yl)phenoxy)azetidin-1-yl)-2-oxoethyl)-5′,7′-dihydro-1′H-spiro[azetidine-3,6′-cyclopenta[f]isoindole]-1′,3′(2′H)-dione]
> 0.1 µM	O=C1CCC(N2C(=O)c3cc4c(cc3C2=O)CN(CC2CC3(CCN(C(=O)c5ccc([C@@H]6c7ccc(O)cc7CC[C@@H]6c6ccccc6)cc5)CC3)C2)C4)C(=O)N1 (stereo partly drawn) [E 494, 2-(2,6-dioxopiperidin-3-yl)-6-((7-(4-((1R,2S)-6-hydroxy-2-phenyl-1,2,3,4-tetrahydronaphthalen-1-yl)benzoyl)-7-azaspiro[3.5]nonan-2-yl)methyl)-6,7-dihydropyrrolo[3,4-f]isoindole-1,3(2H,5H)-dione]
